From patent publication US11583555B2, “Genetic re-engineering of immune cells to improve metabolic fitness for immunotherapy” (University of Pittsburgh—Of the Commonwealth System of …, priority 2016, dated 2023)

Key:
Type in all cases: in vivo
[1] = tested on: tumor-infiltrating Treg cells; assay: Treg depletion with diphtheria toxin in B16-bearing Foxp3^DTR.GFP mice; conditions: 3 days diphtheria toxin
Akt = Akt inhibitor treatment of B16-bearing mice, PGC1α levels and mitochondrial mass of CD8^+ T cells; conditions: short-term treatment (72 h)
Procedure: FIGS. 11A-11H. Intratumoral T cell mitochondrial biogenesis is repressed by chronic Akt-mediated repression of PGC1α (A) Flow cytogram (left) and tabulated data (right) of PGC1α intracellular staining in CD8^+ T cells isolated from nondraining or draining LNs or TIL preparations from B16 or MC38 bearing mice. Shaded histogram indicates isotype control. (B) Flow cytogram of PGC1α expression in CTV-labeled, naïve OT-I T cells adoptively transferred into B16^OVA bearing mice for 72 h. Tabulation for multiple experiments is to the right. (C) Flow cytogram of cytokine production of congenically mismitached WT OT-I T cells transferred into B16^OVA-bearing or VV^OVA-infected mice for 96 h, then restimulated with SIINFEKL peptide. (D) Representative and tabulated phospho-Akt (S473) and phospho-Foxo1 (T24)/3a(T32) staining of the indicated cell populations in mice bearing 14-day B16 tumors. MFI is reported. (E) Representative flow cytogram and tabulated data indicating PGC1α staining in pAkt low or high cells. (F) MFI of pAkt staining in naïve OT-I T cells, or OT-I T cells transferred for 3 or 6 days into a B16^OVA-bearing or VV^OVA infected mouse. […] Results are representative of 5 (A,B, D) 3 (C, E, G, H) or 2 (F) independent experiments. *, p<0.05, **p<0.01, ***p<0.001 by unpaired t-test (A, F, G, H) or paired t-test (D, E, G, H). ***p<0.001 by two-way ANOVA. Error bars indicate s.e.m. […]

[2] = tested on: tumor infiltrating T cells; assay: m-divi-1 treatment of tumor-bearing mice after OT-I adoptive transfer, mitochondrial staining; conditions: tumor-bearing mice treated 24 h after adoptive transfer
Procedure: FIGS. 5A-5E. T cell mitochondrial dysfunction is induced upon entry into the tumor microenvironment. (A) Representative flow cytogram and tabulated data of LN and TIL of naïve, CTV-labeled, OT-I (Thy 1.1^+) CD8^+ T cells transferred into B16^OVA-bearing mice (5-7 mm tumors), or the spleens of the same progenitor cells transferred into B6 mice infected with 1×10^6 PFU VV^OVA for 72 h. Cells were stained with MitoTracker Deep Red FM. (B) As in A, but with the mitochondrial membrane potential dye TMRE. (C) As in A, but with the cellular ROS indicator DCFDA. (D) As in A, but cells were permeabilized and stained intracellularly for LC3B. (E) Representative data from experiments as in A, but some mice received mitophagy inhibitor m-divi-1. Results represent the mean of three or four independent experiments, with n=7-9 mice per group. **p<0.01, ***p<0.001, ***p<0.0001 by two-way ANOVA. Error bars indicate s.e.m.
Single-cell metabolic capacity was assayed by flow cytometry. Specifically, 2-NBD-glucose (Cayman Chemical) and MitoTracker FM dyes (ThermoFisher) were utilized to assay the propensity of cells to take up glucose or generate intermediates via their mitochondria. […]
As mitochondrial depolarization can lead to autophagy, it was determined whether mitophagy may be mediating the loss of mitochondria in tumor-infiltrating T cells.

diphtheria toxin was tested, and the “CD8^+ T cell MitoTracker FM staining” value [1] was “no significant increases in CD8^+ T cell MitoTracker FM staining” and the “depletion of tumor-infiltrating Treg cells” value [1] was “near complete depletion of tumor-infiltrating Treg cells”.
In the case of `O=c1[nH]c2ccccc2n1C1CCN(Cc2ccc(-c3nc4cc5[nH]cnc5cc4nc3-c3ccccc3)cc2)CC1` [Akt inhibitor, Akt inhibitor VIII], the “PGC1α and mitochondrial sufficiency (metabolically suppressive phenotype)” value (Akt) is reported as “partial rescue of the metabolically suppressive phenotype”.
In the case of `COc1cc(-n2c(=S)[nH]c3ccccc3c2=O)c(Cl)cc1Cl` [m-divi-1], the “mitochondrial staining in tumor infiltrating T cells” value [2] is reported as “failed to improve mitochondrial staining”.
